According to US20260200926A1, “TREM2 MODULATORS” (Muna Therapeutics ApS, priority 2022, published 2026):
Like-named read-outs stand apart in the source and are kept apart here.

Molecular target: T1, Human TREM2 (Homo sapiens, UniProt Q9NZC2)
T1 construct: expressed in transfected cells
Test: Human TREM2 activity: cellular phosphorylation of Syk (AlphaLISA SureFire Ultra p-SYK) in HEK293/DAP12+TREM2 stable cell line
Assay type: cell-based
Conditions: for Emax: maximal response relative to reference agonist example 1B (remaining examples); for EC50: phospho-Syk AlphaLISA signal, HEK293/DAP12+TREM2 cells, concentration giving 50% of maximal response, read-out: EC50
Source text: Human TREM2, in vitro Measurement of Triggering Receptor Expressed on Myeloid Cells 2 activity using cellular phosphorylation of Spleen Tyrosine Kinase (“Syk”) Assay
HEK-293 cells were co-transfected with separate plasmids encoding TREM2 and DAP12 to generate a stable cell line. After antibiotic selection, functional clone pool analysis and two successive limiting dilutions, the final clone “HEK293/DAP12+TREM2” underwent a qPCR analysis and a pharmacological validation.
TREM2 signaling through DAP12 was monitored in the HEK293/DAP12+TREM2 stable cell line by measuring the phosphorylation levels of the Syk kinase using the commercially available AlphaLISA SureFire Ultra p-SYK (Tyr525/526) Assay Kit (PerkinElmer #ALSU-PSYK), based on the Perkin Elmer AlphaScreen/AlphaLISA technology.
Compounds are transferred to the test plate and tested in full dose response, 8 concentrations in quadruplicate data points. Compound serial dilutions were performed at Cybi-Felix instrument in 100% DMSO and the dose response curves were assembled in automated fashion in 384MPT at Hamilton STARlet instrument. All the stock solutions were prepared at 20 mM in 100% DMSO. For compounds testing, the starting concentration was 100 μM, dilution steps 1:6. […] Finally, a 384MPT reformatted for all compounds at 8 concentrations, quadruplicates, was used as “mother to child” process with a CyBi®-Well dispenser in which 1 μL of each compound was moved into a destination plate pre-filled with 65.6 μL of EMEM cell culture medium (BIOWHITTAKER_cat.BE12-125F), thus obtaining 3× concentrated compounds working solution. In columns 1-2 and 23-24 the control wells were added. In particular, dose response curves of a reference control agonist were included in column 1 and 24 as reference control agonist (Reference control agonists used include Human TREM2 polyclonal Antibody AF1828: R&D Systems; Human TREM2 monoclonal Antibody MAB1828: R&D Systems). The dose response curves were tested starting at 30 μM, dilution step 1:6. Both “source” compound plate and “destination” compound plate were barcoded and a relationship between the two plates was thus generated.
HEK293/DAP12+TREM2 cells were cultured in EMEM medium supplemented with IX Penicillin/Streptomycin (BIOWHITTAKER_cat.DE17-602E), ULTRAGLUTAMINE I 200 mM, 10% Fetal Bovine Serum plus antibiotics referred to as “HEK293 Culture Medium”. The day before the experiment, cells were detached by gentle wash with DPBS, followed by 5 min incubation at 37° C. with Trypsin solution. Cells were then diluted in HEK293 Culture Medium without antibiotics, counted and seeded into 384-well poly-D-Lysine coated microplates black/clear bottom (GREINER 781946) at a density of 10,000 cells/well in 25 μL/well by the use of a MATRIX WellMate dispenser. Plates were placed into a humidified cell culture incubator at 37° C. with 5% CO2 until the experimental day. 20-24 hours after seeding mature medium was removed and replaced with 10 μL/well of EMEM cell medium supplemented with 0.1% Pluronic F-68 non-ionic surfactant (Thermofisher, 24040032), referred to as “Assay Buffer”, using the CyBi®-Well instrument. Then 5 μL/well of Assay Buffer containing 3× concentrated test compounds or the reference control agonist (in 0.5% final DMSO concentration) were added to the cells with the CyBi®-Well instrument. Cell plates were incubated for 30 min into a humidified cell culture incubator at 37° C. with 5% CO2·, then the medium was removed by manually discard. 20 μL/well of lysis buffer were dispensed using the CyBi®-Well instrument and plates were incubated for 10 min at room temperature on a plate shaker (350 rpm). Then, 10 μL/well of lysate were transferred to the Alpha plates. The CyBi®-Well instrument was used to dispense 5 μL/well of AlphaLISA Acceptor Bead Solution in IX Immunoassay buffer (Perkin Elmer AL000F). Then the plates were sealed with Heat sealing foil, shaked for 2 minutes (350 rpm) and incubated for 1 hour at room temperature.

T1 sequence (Q9NZC2 19-230): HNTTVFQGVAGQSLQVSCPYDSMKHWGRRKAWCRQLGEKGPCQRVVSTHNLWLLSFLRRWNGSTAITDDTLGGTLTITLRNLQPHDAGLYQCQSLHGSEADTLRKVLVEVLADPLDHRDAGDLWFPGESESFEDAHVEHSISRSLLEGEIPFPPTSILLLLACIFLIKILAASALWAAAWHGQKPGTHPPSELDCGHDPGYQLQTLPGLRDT
T1 sequence (O43914 22-113 partner): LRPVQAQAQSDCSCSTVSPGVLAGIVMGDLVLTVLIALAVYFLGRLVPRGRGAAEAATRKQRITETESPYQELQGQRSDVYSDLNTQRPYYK

Emax (HEK293, read-out: Emax) [%] | EC50 [nM] | Emax | SMILES
75 to 110 | 10 to 100 |  | Cc1nc2c(C3CCC(C)CC3)nc(N3CCOC(c4cnn(C)c4)C3)nc2c(=O)n1C (single isomer, unassigned) [Example 71A]
 | 10 to 100 | + (<75%) | Cc1nc2c(nc(N3CCO[C@@H](c4cnn(C)c4)C3)nc2[C@H]2CC[C@H](C)CC2)c(=O)n1C (single isomer, unassigned) [Example 71B]
< 75 | > 1000 |  | Cc1nc2c(-c3ccc(C(F)(F)F)nc3)nc([C@H]3CCO[C@@H](c4cnn(C)c4)C3)nc2c(=O)n1C (single isomer, unassigned) [Example 88B]
75 to 110 | 10 to 100 |  | Cc1nc2c(-c3ccc(Cl)cc3F)nc(N3C[C@H](c4cnn(C)c4)OC(C)(C)C3)nc2c(=O)n1C (single isomer, unassigned) [Example 89B]
75 to 110 | 10 to 100 |  | Cc1nc2c(-c3cc(F)c(F)cc3F)nc(N3C[C@@H](c4cnn(C)c4)OC(C)(C)C3)nc2c(=O)n1C (single isomer, unassigned) [Example 101A]
< 75 | > 1000 |  | Cc1nc2c(-c3cc(F)c(F)cc3F)nc(N3C[C@H](c4cnn(C)c4)OC(C)(C)C3)nc2c(=O)n1C (single isomer, unassigned) [Example 101B]
75 to 110 | 1 to 10 |  | Cn1cc([C@H]2CN(c3nc(-c4ccc(Cl)cc4F)c4nc(C(F)(F)F)n(C)c(=O)c4n3)CCO2)cn1 (single isomer, unassigned) [Example 103]
75 to 110 | 10 to 100 |  | Cc1nc2c(-c3ccc(Cl)cc3F)nc(N3CCO[C@H](c4cnn(C(F)(F)F)c4)C3)nc2c(=O)n1C (single isomer, unassigned) [Example 107A]
75 to 110 | 100 to 1000 |  | Cc1nc2c(-c3ccc(Cl)cc3F)nc(N3CCO[C@@H](c4cnn(C(F)(F)F)c4)C3)nc2c(=O)n1C (single isomer, unassigned) [Example 107B]
75 to 110 | 1 to 10 |  | Cc1nc2c(-c3ccc(Cl)cc3F)nc(N3C[C@@H](c4cnn(C)c4)OC4(CC4)C3)nc2c(=O)n1C (single isomer, unassigned) [Example 108A]
< 75 | 100 to 1000 |  | Cc1nc2c(-c3ccc(Cl)cc3F)nc(N3C[C@H](c4cnn(C)c4)OC4(CC4)C3)nc2c(=O)n1C (single isomer, unassigned) [Example 108B]
75 to 110 | 1 to 10 |  | Cc1nc2c(-c3ccc(Cl)cc3F)nc(N3C[C@@H](c4cnn(C)c4)OC4(CCC4)C3)nc2c(=O)n1C (single isomer, unassigned) [Example 109A]
< 75 | 100 to 1000 |  | Cc1nc2c(-c3ccc(Cl)cc3F)nc(N3C[C@H](c4cnn(C)c4)OC4(CCC4)C3)nc2c(=O)n1C (single isomer, unassigned) [Example 109B]

More lines, now with the values behind:

SMILES | Emax (HEK293, read-out: Emax) [%] | EC50 [nM] | Emax
Cc1nc2c(-c3ccc(C(F)(F)F)nc3)nc([C@@H]3CCO[C@H](c4cnn(C)c4)C3)nc2c(=O)n1C (single isomer, unassigned) [Example 88A] | < 75 | > 1000 | 
Cc1nc2c(-c3ccc(C(F)(F)F)nc3)nc(N3CCC(F)(F)[C@H](c4cnn(C)c4)C3)nc2c(=O)n1C (single isomer, unassigned) [Example 92] | < 75 | 10 to 100 | 
Cc1nc2c(-c3ccc(C(F)(F)F)nc3)nc(N3CCC(F)(F)[C@@H](c4cnn(C)c4)C3)nc2c(=O)n1C (single isomer, unassigned) [Example 93] | 75 to 110 | 10 to 100 | 
Cc1cc([C@H]2C[C@@H](c3nc(-c4ccc(Cl)cc4F)c4nc(C)n(C)c(=O)c4n3)CCO2)ccn1 (single isomer, unassigned) [Example 94] | 75 to 110 | 1 to 10 | 
Cc1cc([C@H]2C[C@H](c3nc(-c4ccc(Cl)cc4F)c4nc(C)n(C)c(=O)c4n3)CCO2)ccn1 (single isomer, unassigned) [Example 95] | < 75 | 100 to 1000 | 
Cc1nc2c(-c3cc(F)c(F)cc3F)nc([C@@H]3CCO[C@H](c4cnn(C5CC5)c4)C3)nc2c(=O)n1C (single isomer, unassigned) [Example 97A] | 75 to 110 | 10 to 100 | 
Cc1nc2c(-c3cc(F)c(F)cc3F)nc([C@H]3CCO[C@@H](c4cnn(C5CC5)c4)C3)nc2c(=O)n1C (single isomer, unassigned) [Example 97B] | < 75 | > 1000 | 
Cc1nc2c(-c3ccc(C(F)(F)F)nc3)nc([C@@H]3CCO[C@H](c4cnn(C5CC5)c4)C3)nc2c(=O)n1C (single isomer, unassigned) [Example 98A] | < 75 | 10 to 100 | 
Cc1nc2c(-c3ccc(C(F)(F)F)nc3)nc([C@H]3CCO[C@@H](c4cnn(C5CC5)c4)C3)nc2c(=O)n1C (single isomer, unassigned) [Example 98B] | < 75 | > 1000 | 
Cc1nc2c(-c3ccc(C(F)(F)F)cc3F)nc(N3C[C@@H](c4cnn(C)c4)OC(C)(C)C3)nc2c(=O)n1C (single isomer, unassigned) [Example 100A] | 75 to 110 | 10 to 100 | 
Cc1nc2c(-c3ccc(C(F)(F)F)cc3F)nc(N3C[C@H](c4cnn(C)c4)OC(C)(C)C3)nc2c(=O)n1C (single isomer, unassigned) [Example 100B] | < 75 | 100 to 1000 | 
Cc1nc2c(-c3ccc(C(F)(F)F)nc3)nc(N3C[C@@H](c4cnn(C)c4)OC(C)(C)C3)nc2c(=O)n1C (single isomer, unassigned) [Example 102A] | 75 to 110 | 10 to 100 | 
Cc1nc2c(-c3ccc(C(F)(F)F)nc3)nc(N3C[C@H](c4cnn(C)c4)OC(C)(C)C3)nc2c(=O)n1C (single isomer, unassigned) [Example 102B] | < 75 | > 1000 | 
Cc1nc2c(-c3ccc(Cl)cc3F)nc(N3C[C@@H](c4cnn(C5CC5)c4)OC(C)(C)C3)nc2c(=O)n1C (single isomer, unassigned) [Example 110A] | 75 to 110 | 1 to 10 | 
Cc1nc2c(-c3ccc(Cl)cc3F)nc(N3C[C@H](c4cnn(C5CC5)c4)OC(C)(C)C3)nc2c(=O)n1C (single isomer, unassigned) [Example 110B] | < 75 | 10 to 100 | 
Cc1nc2c(-c3ccc(Cl)cc3F)nc([C@H]3C[C@@H](c4cnn(C)c4)OC(C)(C)C3)nc2c(=O)n1C (single isomer, unassigned) [Example 111A] | 75 to 110 | 10 to 100 | 
Cc1nc2c(-c3ccc(Cl)cc3F)nc([C@@H]3C[C@H](c4cnn(C)c4)OC(C)(C)C3)nc2c(=O)n1C (single isomer, unassigned) [Example 111B] | < 75 | 100 to 1000 | 
Cc1nc2c(-c3ccc(Cl)cc3F)nc(N3C[C@@H](c4cnn(C)c4)OC(C)(C)C3)cc2c(=O)n1C (single isomer, unassigned) [Example 112A] | 75 to 110 | 10 to 100 | 
Cc1nc2c(-c3ccc(Cl)cc3F)nc(N3C[C@H](c4cnn(C)c4)OC(C)(C)C3)cc2c(=O)n1C (single isomer, unassigned) [Example 112B] | < 75 | 100 to 1000 | 
Cc1nc2c(-c3ccc(Cl)cc3F)nc([C@]34CCO[C@H](c5cnn(C6CC6)c5)[C@H]3C4)nc2c(=O)n1C (single isomer, unassigned) [Example 116A] | < 75 | 100 to 1000 | 
